The nature of series [1]: Time course analysis of thymidine phosphorylation by cell-free translation products. Type of series: biochemical. As to conditions: for TK activity (thymidine phosphorylation) in time course compared to wild-type TK: cell-free translation products, 30° C., adjusted to protein synthesis levels; for classification on the basis of TK activities: high-activity or low-activity subset. The protocol: The transcripts described above were then used in a rabbit reticulocyte lysate cell-free translation system to synthesize active enzymes. Cell-free translation was according to Promega using nuclease-treated rabbit reticulocyte lysates.
For the high-activity mutant enzymes, unlabeled translation products were diluted 1/9 and incubated for 0, 5, 10, 20, or 30 minutes at 30° C. The TK activity results (counts per minute) were adjusted to reflect equivalent protein synthesis levels using the corresponding TCA-precipitable counts (^35S cpm).
The low-activity mutants were diluted 1/5, and the rate of phosphorylation as a function of time was also determined.

Series [2] is classed as biochemical. The conditions noted are these: for thermal stability compared to HSVTKII after 42° C. preincubation: cell-free translation products. The protocol: To substantiate this observation, cell-free translation products were incubated at 42° C. for increasing times prior to being assayed for enzyme activity. Briefly, cell free translation (“CFT”) products of each high-activity mutant, -RNA, and HSVTKII samples were diluted 1/9 and incubated for 0, 5, 10, and 20 minutes at 42° C. The preincubated samples were then assayed for 5 minutes (P155A/F161V and F161I) or 20 minutes (-RNA, HSVTKII, F161C, and D162E). The percent of activity remaining was determined with the untreated samples set at 100%. […] Because F161C lost greater than 90% of enzyme activity within the first 20 minutes at 42° C., shorter incubation periods at 42° C. were performed (0, 5, 10, and 20 minutes).
Low-activity mutant CFT products were diluted 1/5 and incubated for 0, 20, 40, or 60 minutes at 42° C. The preincubated samples were then assayed in triplicate for the thymidine phosphorylation for 60 minutes. The percent of activity remaining was determined using the untreated (time 0) sample as 100%.

Series [3] relates to E. coli KY895. Nature of the series: Secondary screen: colony formation on acyclovir, AZT, LB and TK selection plates. Type of series: cell-based. Further details: key to ACV / AZT / LB / 37° C. / 42° C.: ++: the same number of colonies were observed as compared to control plates; +: fewer (<20% those observed with pMCC) and generally smaller (˜50% smaller diameter) colonies were observed as compared to control plates; −: no colonies were observed. As to conditions: for utilization of nucleoside analogues over thymidine in comparison to the wild-type: ACV and AZT plates; for AZT: colonies on AZT plates: 1 μg/mL thymidine + 0.05 μg/mL AZT; for AZT / ACV: 37° C.; for LB: colonies on LB+carb50 plates; for 37° C.: colonies on TK selection plates at 37° C.; for 42° C.: colonies on TK selection plates at 42° C.; for ACV: colonies on acyclovir plates: 1 μg/mL thymidine + 1 μg/mL acyclovir. How it is done:
The ability of pMCC (KY895) and 35 log-phase mutant pMDC (KY895) cultures to produce colonies on acyclovir (“ACV”) or AZT plates was determined in a secondary screen as described below. Briefly, log-phase cultures of TK positive clones were serially diluted in 0.9% NaCl and spread onto acyclovir or AZT plates (TK selection plates except 1 μ/mL thymidine+1 μg/mL acyclovir or 0.05 μg/mL AZT). Mutant cultures were also spread onto duplicate TK selection and LB+carb^50 plates. One set of TK selection plates and LB+carb^50 plates were incubated at 42° C. All other plates were incubated at 37° C. After 16-24 hours the plates were scored.
Briefly, only mutants that gave results which differed from those observed with the wild-type pMCC (KY895) are shown.

The nature of series [4]: Substrate specificity assay, deoxycytidine. Type of series: biochemical. The conditions noted are these: cell-free translation products, 2 hours at 30° C. How it is done:
(§1) Three of the mutants (P155A/F161V, F161I and F161C) were assayed in triplicate for the relative levels of phosphorylation using thymidine, deoxycytidine, ACV, GCV, or AZT as substrates. Briefly, forty-eight […] of each tritiated substrate was used in each assay reaction. Translation products were diluted for each nucleoside assay as follows (translation/H2O). 1/100, thymidine; 2/3, deoxycytidine, GCV, and AZT; 4/1, ACV. Each set of assays was incubated for 2 hours at 30° C. and the amount of phosphorylated product determined.

The nature of series [5]: Substrate specificity assay, ACV. Type of series: biochemical. As to conditions: cell-free translation products, 2 hours at 30° C. How it is done:
as §1

Series [6] in a line: Substrate specificity assay, thymidine. Type of series: biochemical. The conditions noted are these: cell-free translation products, 2 hours at 30° C. How it is done:
as §1

The values below come from patent US6451571B1, “Thymidine kinase mutants” (University of Washington, priority 1994, dated 2002).

As for D162E, in series [1], the “TK activity (thymidine phosphorylation) in time course compared to wild-type TK” value (from here on “TK activity … compared to wild-type TK”) was “no difference in activities when compared to the wild-type TK” and the “classification on the basis of TK activities” value (“classification on the basis” for short) was “high-activity”.

Turning to D162G, the “classification on the basis” value in series [1] was “low-activity”. The “thermal stability compared to HSVTKII after 42° C. preincubation” value (“thermal stability compared to HSVTKII” below) in series [2] is “equivalent to HSVTKII”.

On to F161C, for which, in series [3], the “utilization of nucleoside analogues over thymidine in comparison to the wild-type” value is “preferentially utilize one or both nucleoside analogues over thymidine”, the AZT entry was “−”, the LB result is listed as “++” and the “37° C.” value is “++”. Also, in series [3], the “42° C.” value is on record as “++”; the ACV entry was “+ (fewer (<20% those observed with pMCC) and generally smaller (˜50% smaller diameter) colonies were observed as compared to control plates)”. For the same substance, in series [1], the “TK activity … compared to wild-type TK” value is “no difference in activities when compared to the wild-type TK” and the “classification on the basis” value is “high-activity”. Also, in series [2] (cell-free translation product), the “activity loss after only 5 minutes at 42° C.” value is around 85% and the “loss of enzyme activity within the first 20 minutes at 42° C.” value is “greater than 90%”. For the same substance, the “thermal stability compared to HSVTKII” value in series [2] is listed as “exceptionally thermolabile”. In addition, in series [4], the “phosphorylation of deoxycytidine over the wild-type enzyme” value is recorded as 2.8 fold. For the same substance, the “phosphorylation of ACV over HSVTKII” value in series [5] is 2 fold.

Turning to F161I, in series [3], the “utilization of nucleoside analogues over thymidine in comparison to the wild-type” value was “preferentially utilize one or both nucleoside analogues over thymidine”; the AZT result was “+ (fewer (<20% those observed with pMCC) and generally smaller (˜50% smaller diameter) colonies were observed as compared to control plates)”; the LB result is recorded as “++”; the “37° C.” value is on record as “++”. In series [3], the “42° C.” value was “++”; the ACV entry was “+ (fewer (<20% those observed with pMCC) and generally smaller (˜50% smaller diameter) colonies were observed as compared to control plates)”. Also, in series [1], the “TK activity … compared to wild-type TK” value was “statistically higher affinity for thymidine than the wild-type TK” and the “classification on the basis” value is “high-activity”. For the same substance, in series [6], the “phosphorylation of thymidine relative to HSVTKII” value was 2.2 fold. Besides, the “phosphorylation of deoxycytidine over the wild-type enzyme” value in series [4] came to 1.9 fold.

Take F161I/R163H: in series [3], the “ability to form colonies on TK selection plates at 42° C.” value is reported as “severely reduced ability to form colonies”, the AZT result was “++”, the LB result is “++” and the “37° C.” value is reported as “++”. Further, in series [3], the “42° C.” value was “+ (fewer (<20% those observed with pMCC) and generally smaller (˜50% smaller diameter) colonies were observed as compared to control plates)”; the ACV entry is listed as “++”. Besides, the “classification on the basis” value in series [1] is reported as “low-activity”. Besides, the “thermal stability compared to HSVTKII” value in series [2] was “equivalent to HSVTKII”.

With F161L, in series [3], the “ability to form colonies on TK selection plates at 42° C.” value is “unable to form colonies”, the AZT result was “++”, the LB entry is reported as “++” and the “37° C.” value is given as “++”. In series [3], the “42° C.” value is listed as “−” and the ACV result was “++”. In addition, in series [1], the “TK activity … compared to wild-type TK” value is recorded as “moderate ability to phosphorylate thymidine, albeit at a much reduced rate from HSVTKII” and the “classification on the basis” value is reported as “low-activity”. For the same substance, in series [2], the “thermal stability compared to HSVTKII” value is on record as “more thermolabile that HSVTKII”.

As to P155A/F161V, in series [3], the “utilization of nucleoside analogues over thymidine in comparison to the wild-type” value is “preferentially utilize one or both nucleoside analogues over thymidine”; the AZT entry was “+ (fewer (<20% those observed with pMCC) and generally smaller (˜50% smaller diameter) colonies were observed as compared to control plates)”; the LB result is recorded as “++”; the “37° C.” value is given as “++”. Also, in series [3], the “42° C.” value was “++” and the ACV entry is on record as “++”. Moreover, in series [1], the “TK activity … compared to wild-type TK” value is given as “statistically higher affinity for thymidine than the wild-type TK” and the “classification on the basis” value is listed as “high-activity”. For the same substance, the “phosphorylation of thymidine relative to HSVTKII” value in series [6] worked out at 2.6 fold. Further, the “phosphorylation of deoxycytidine over the wild-type enzyme” value in series [4] came out at 2.8 fold. For the same substance, the “phosphorylation of ACV over HSVTKII” value in series [5] is recorded as 2.4 fold.

For R163P/H164Q, in series [3], the “ability to form colonies on TK selection plates at 42° C.” value is given as “unable to form colonies”; the “utilization of nucleoside analogues over thymidine in comparison to the wild-type” value is “preferentially utilize one or both nucleoside analogues over thymidine”; the AZT result was “+ (fewer (<20% those observed with pMCC) and generally smaller (˜50% smaller diameter) colonies were observed as compared to control plates)”; the LB entry is on record as “++”. Besides, in series [3], the “37° C.” value was “++”; the “42° C.” value was “−”; the ACV entry was “+ (fewer (<20% those observed with pMCC) and generally smaller (˜50% smaller diameter) colonies were observed as compared to control plates)”. Moreover, in series [1], the “classification on the basis” value is on record as “low-activity”. In addition, in series [2], the “thermal stability compared to HSVTKII” value is “equivalent to HSVTKII”.
